Results from patent US20230172874A1, “USE OF CANNABIDIOL FOR THE TREATMENT OF INSOMNIA ASSOCIATED TO PAIN” (priority 2021, published 2023).
“Also recorded” adds a separate entry of the source.

Key:
[1] = test system: neuropathic rats; assay: EEG/EMG recording of wakefulness, NREM and REM sleep in neuropathic rats; assay type: in vivo, male Wistar rats; settings: for REM sleep (total time), relative to NP rats treated with vehicle / total NREM sleep, relative to NP rats treated with vehicle / total time of wakefulness, relative to NP rats treated with vehicle: WAY 100635 2 mg/kg; for block of the hypnotic effects of CBD (20 mg/kg): WAY 100635 2 mg/kg i.p. 10 min before CBD
Description: Animals. The experiments were performed on male Wistar rats weighing 250 g (six weeks). All animals were housed in standardized animal facilities under a 12 h light/dark cycle (lights on at 7 AM) with ad libitum access to food and water. All surgeries and experimental procedures were performed during the light cycle. Experimental protocols were approved by the Animal Ethics Committee of the local institutional committee for animal use and care (McGill University, Qc, Canada). These protocols follow ethical guidelines for investigation of experimental pain in conscious animals of the IASP, the Canadian Institute of Health Research guidelines for animal care and scientific use.
Spared nerve injury (SNI). SNI was performed according to the method of Decosterd and Woolf^35. Rats were deeply anaesthetized with isofluorane (5%), anaesthesia was confirmed by the absence of a nociceptive reflex reaction to a paw pinch. The sciatic nerve was exposed at mid-thigh level distal to the trifurcation and freed of connective tissue; the three peripheral branches (sural, common peroneal, and tibial nerves) of the sciatic nerve were exposed without stretching nerve structures. Both tibial and common peroneal nerves were ligated and transected together. Carprofen (5 mg/kg) was administrated subcutaneously pre-surgery as well as three days every 24 hours post-surgery as analgesic. After SNI, each rat was housed in its home cage for 15 days until the neuropathy is developed.
EEG/EMG Implantation. Neuropathic rats (10 days after surgery) and naïve rats were placed in a stereotaxic frame following isoflurane-induced anesthesia (5%). Anaesthesia was confirmed by the absence of a nociceptive reflex reaction to a paw pinch. For EEG monitoring, three stainless-steel epidural electrodes were positioned through 1.5 mm burr holes: one over the parietal cortex on each side, and the third (as a reference) in the right prefrontal cortex. In rats, their respective locations relative to bregma were −2 mm anteroposterior (AP) and −3 mm lateral (L), −7 mm AP and −3 mm L, and −4.5 mm AP and +3 mm L, according to Paxinos and Watson. For EMG monitoring, three flexible stainless-steel wire electrodes, silicon insulation removed at the terminal 3-4 mm, were implanted into the neck muscles (two bilaterally and one in the middle). Wires were fused with the electrodes and the connectors were fixed to the skull with dental acrylic (Coltene/Whaledent). Carprofen (10mg/kg) was administrated subcutaneously pre-surgery as well as three days every 24 hours post-surgically as analgesic. Each rat was single-caged post-surgery and allowed to recover for the next 5 days^13. 24 hours after surgery, the rats were placed in the recording chamber and connected to a flexible 6-flat wire (3M Scotchflex™) in a freely moving manner for several hours during the subsequent 5 days. No recordings were performed, but tolerance to the cable and sleep behavior were observed. All rats from a home cage were also grouped for one hour each day for socialization to circumvent anxious-depressive-like behavior induced by social isolation^13.
Study design for EEG and EMG assessment. […] […] In another cohort of rats rimonabant (1 mg/kg) was also injected i.p. at 6 A.M. in neuropathic rats.
(§1) EEG and EMG recording. Six days after surgery (16 days post-SNI), mechanical allodynia was assessed via von Frey test, and EEG/EMG was recorded for a period of 6 h (from 6 AM to 12 PM). The treatments (described below) were performed at 6:00 A.M., right after the recording had started. […] Consecutive 10 s epochs were subjected to a fast Fourier transform (FFT), and EEG power spectra density was computed in the frequency range of 0-64 Hz^13.
Analysis of EEG and EMG data. The three classical vigilance states as described in the rat were discriminated on the basis of the cortical EEG and neck EMG activities. […]

[2] = test system: rats; settings: rat, in vivo; cited from earlier work
[3] = test system: neuropathic rats; assay: EEG power spectra (delta, theta, sigma bands) during NREM and REM sleep; assay type: in vivo, male Wistar rats
Description: as §1
To determine the variations in power spectra induced by the pharmacological treatment of CBD and antagonists, the power densities were summed up over the frequency band of 0-25 Hz (total power). The data were then standardized by expressing all power spectral densities at the different 0.5 Hz bin frequency ranges (delta, theta, and sigma) as a percentage relative to the total power of the same epoch^16. Frequency ranges were 0-3.5Hz for delta, 4-8.5Hz for theta, and 11-14 Hz for sigma bands. The sum of power densities over a frequency band following treatments were expressed as the percentage difference from that in or naïve+veh or NP+vehicle group in statistical analysis. In the experiments with WAY 100635 the NP+CBD was compared with NP+vehicle, NP+WAY, NP+WAY+CBD.
To assess whether CBD (20 mg/kg) might affect the microarchitecture during the sleep, the intensity Delta (0.5-4 Hz), Theta ([…]) and Sigma (10-15 Hz) waves were measured during 6 hours of light phase in the 3 groups of rats (Naïve, SNI+VEH and SNI+CBD 20mg/kg). Data were converted as a percentage of variation vs. naive animals and One-way ANOVA was performed on the power of delta, theta and sigma waves during NREM and REN sleep.
To assess whether the 5-HT1A selective antagonist WAY 100635 (2 mg/kg) might reverse the effect of CBD (20 mg/kg) in the enhancement of power density (Delta, Theta, and Sigma waves) during sleep, the power spectra were measured for 6 hours in four groups of rats. The first group were NP rats treated with CBD vehicle (n=8), the second group were NP rats treated with WAY 100635 alone at 2 mg/kg (n=6), the third group were NP rats treated with WAY 100635 (2 mg/kg)+CBD (20 mg/kg; n=6), and the fourth group were NP treated with CBD at 20 mg/kg (n=8). Data were converted as a percentage of variation vs NP animals treated with vehicle.

[4] = 6 h EEG/EMG, i.p., CBD 20 mg/kg, rimonabant 1 mg/kg
[5] = NP rats, 6 h EEG/EMG, i.p., CBD 20 mg/kg, rimonabant 1 mg/kg
[6] = 6 h EEG/EMG, i.p., CBD 20 mg/kg
[7] = 6 h EEG/EMG, i.p., CBD 20 mg/kg, listed as WAY

Cc1c(C(=O)NN2CCCCC2)nn(-c2ccc(Cl)cc2Cl)c1-c1ccc(Cl)cc1 [Rimonabant]
REM sleep (total time), relative to NP rats treated with vehicle [1, 4]: Decrease the Time Spent in REM; also recorded: difference | REM sleep (total time), relative to NP rats treated with vehicle ([1]; 6 h EEG/EMG, i.p., CBD 20 mg/kg, rimonabant 1 mg/kg, listed as rimonabant): reduction of REM sleep time; also recorded: decreases REM sleep | REM sleep, relative to naïve animals treated with vehicle [1, 5]: difference | wakefulness, relative to naïve animals treated with vehicle [1, 5]: difference | reversal of sleep perturbations induced by neuropathic pain (sleep-wake cycle) ([1]; NP rats, i.p., CBD 20 mg/kg, rimonabant 1 mg/kg): Does not Reverse the Sleep Perturbations | time spent in NREM sleep [2]: reducing the time spent in NREM sleep and REM sleep | time spent in REM sleep [2]: reducing the time spent in NREM sleep and REM sleep | time spent in wakefulness [2]: dose-dependently increased the time spent in wakefulness

COc1ccccc1N1CCN(CCN(C(=O)C2CCCCC2)c2ccccn2)CC1 [WAY 100635]
REM sleep, compared to NP rats treated with CBD 20 mg/kg ([1]; 6 h EEG/EMG, WAY 100635 alone i.p.): decrease in REM sleep | total NREM sleep, relative to NP rats treated with vehicle [1, 6]: statistically reduced the time spent NREM sleep | total time of wakefulness, relative to NP rats treated with vehicle [1, 6]: increase in wakefulness | total NREM sleep, relative to NP rats treated with vehicle [1, 7]: impaired NREM sleep | total time of wakefulness, relative to NP rats treated with vehicle [1, 7]: increased wakefulness | REM sleep (total time), relative to NP rats treated with vehicle [1, 4]: no statistical difference was detected | total time of wakefulness, relative to NP rats treated with CBD 20 mg/kg ([1]; 6 h EEG/EMG, i.p., WAY 100635 2 mg/kg alone or 10 min before CBD 20 mg/kg): increase in wakefulness | block of the positive effect of CBD (20 mg/kg) on REM sleep ([1]; NP rats, 6 h EEG/EMG, WAY 100635 (1 mg/kg) as printed, before CBD, p<0.001): able to block the positive effect of CBD | block of the hypnotic effects of CBD (20 mg/kg) ([1]; NP rats): fully prevented | block of the hypnotic effects of CBD (20 mg/kg) ([1]; NP rats, listed as WAY100635): Blocks the Hypnotic Effects of CBD | power of Delta waves during REM sleep, between groups (ANOVA) ([3]; NP rats, 6 h, CBD 20 mg/kg, WAY 100635 2 mg/kg): no statistically significant differences between groups | block of the theta power increase induced by CBD (20 mg/kg) on NREM sleep ([3]; NP rats, WAY 100635 2 mg/kg, p<0.0003): able to block the theta power increase induced by CBD | block of the effects of CBD (20 mg/kg) on Sigma power during REM sleep ([3]; NP rats, WAY 100635 2 mg/kg, p<0.0019): blocks the effects of CBD | block of the Delta power increase induced by CBD (20 mg/kg) on NREM sleep ([3]; NP rats, WAY 100635 2 mg/kg, p<0.0048): able to block the Delta power increase induced by CBD | block of the positive effect of CBD (20 mg/kg) on theta waves during REM sleep ([3]; NP rats, WAY 100635 2 mg/kg, p<0.0061): able to block the positive effect of CBD | intensity of Sigma waves during NREM sleep, relative to NP animals administered CBD 20 mg/kg ([3]; WAY 100635 2 mg/kg alone (p<0.038) or WAY 100635+CBD (p<0.0006)): differences were detected
